From patent US9115129B2, “Substituted pyrido[2,3-B]pyrazines as IP receptor agonists” (Novartis AG, priority 2012, dated 2015)

molecular target: T1, IP receptor (Homo sapiens, UniProt P43119); experiment: cAMP accumulation in CHO cells stably expressing the IP receptor (CHO-IP), Perkin Elmer AlphaScreen assay; format: cell-based; conditions: agonist activity, 1 hour at room temperature
T1 construct: expressed in transfected cells; host or cells: CHO cells stably expressing the IP receptor (CHO-IP)
Experimental: Activity of compounds at the IP receptor (IP receptor) is assessed by measuring cAMP accumulation in CHO cells stably expressing the IP receptor (CHO-IP) using the Perkin Elmer AlphaScreen assay. This technology measures the endogenous production of cAMP, in a non-radioactive luminescence proximity homogenous assay. A biological reaction occurs between streptavidin coated donor beads, biotinylated cAMP and anti-cAMP acceptor beads, bringing the donor and acceptor beads close enough together so that upon excitation a fluorescence signal is produced. On production of endogenous cAMP, competition between the biotinylated cAMP and cellular-derived cAMP causes a reduction in the fluorescent signal. The reduction in signal is proportional to the amount of cAMP being produced, thus it is possible to quantify the amount of cAMP being produced on stimulation with agonist.
Test and reference compounds are prepared at 100× [final] in 100% DMSO, and diluted 1:3 using a Biomek Fx (Beckman Coulter). This is followed by an intermediate dilution to give 5× [final] in assay buffer (HBSS containing 5 mM HEPES, 0.1% (w/v) BSA). 5 μL of 5× [final] test compounds, reference compounds and buffer/DMSO control are then transferred to a 384-well white OptiPlate, containing 20 μL CHO-IP cell suspension (15,000 cells/well, prepared from frozen), and plate is incubated at room temperature for 1 hour. A cAMP standard curve is constructed for each experiment (concentration range of 10000 nM to 0.001 nM, in assay buffer) and 25 μL of each concentration added to the last two columns of the assay plate. The incubation is terminated by the addition of lysis buffer (dH2O; 0.3% (v v^−1) Tween-20) containing 20 units mL^−1 streptavidin coated donor beads and biotinylated cAMP (pre-incubated for 30 minutes) and 20 units mL^−1 anti-cAMP acceptor beads, which are added to the lysis buffer just before addition to the assay plate. The assay plate is then incubated at room temperature in the dark, for 60 minutes with gentle shaking, and read on the Envision plate reader (Perkin Elmer).
The raw data of the reference compounds, test compounds and controls are converted into cAMP concentrations, using the cAMP standard curve, in Graph Pad Prism (Graph Pad Software Inc). EC50 as well as maximal values of the agonist curves are determined using a 4-parameter logistic equation. The % maximum response values of all test compounds are determined using the top of the treprostinil concentration-response curve.

T1 sequence (P43119 whole entry): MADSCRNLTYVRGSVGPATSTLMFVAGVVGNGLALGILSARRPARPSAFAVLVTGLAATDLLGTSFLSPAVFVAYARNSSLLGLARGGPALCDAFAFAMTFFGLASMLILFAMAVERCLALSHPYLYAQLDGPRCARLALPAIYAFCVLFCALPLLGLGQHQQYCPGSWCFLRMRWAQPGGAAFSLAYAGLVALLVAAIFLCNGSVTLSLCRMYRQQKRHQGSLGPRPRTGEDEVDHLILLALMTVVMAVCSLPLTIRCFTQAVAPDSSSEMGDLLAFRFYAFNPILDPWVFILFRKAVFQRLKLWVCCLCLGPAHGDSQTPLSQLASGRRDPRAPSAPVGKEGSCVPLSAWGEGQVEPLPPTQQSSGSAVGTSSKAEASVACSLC

Row | SMILES | EC50 [nM]
1 | Cc1ccc(-c2nc3c(nc2-c2ccc(C)cc2)N(CCCCCCC(=O)O)CC(N2CCCCC2)C3)cc1 (stereo not shown) [Example 14] | 2.7
2 | O=C(O)CCCCCCN1CCCc2nc(-c3ccc(F)cc3F)c(-c3ccc(F)cc3F)nc21 [Example 4, 7-(2,3-Bis(2,4-difluorophenyl)-7,8-dihydropyrido[2,3-b]pyrazin-5(6H)-yl)heptanoic acid] | 0.7
3 | Cc1ccc(-c2nc3c(nc2-c2ccc(Cl)cc2)N(CCCCCCC(=O)O)C(=O)CC3)cc1 [Example 7.3, 7-(3-(4-Chlorophenyl)-6-oxo-2-p-tolyl-7,8-dihydropyrido[2,3-b]pyrazin-5(6H)-yl)heptanoic acid] | 0.3

Second part, the compound after the results:

Row | EC50 [nM] | SMILES
4 | 0.6 | Cc1ccc(-c2nc3c(nc2-c2ccc(C)cc2)N(CCCCCCC(=O)O)C(=O)C(C(C)(C)O)C3)cc1 (single isomer, unassigned) [1.1(ii), (R)-7-(7-(2-hydroxypropan-2-yl)-6-oxo-2,3-di-p-tolyl-7,8-dihydropyrido[2,3-b]pyrazin-5(6H)-yl)heptanoic acid or (S)-7-(7-(2-hydroxypropan-2-yl)-6-oxo-2,3-di-p-tolyl-7,8-dihydropyrido[2,3-b]pyrazin-5(6H)-yl)heptanoic acid]
5 | 66.2 | Cc1ccc(-c2nc3c(nc2-c2ccc(C)cc2)N(CCCCCCC(=O)NS(=O)(=O)Cc2ccccc2)CCC3O)cc1 (single isomer, unassigned) [Example 13.3, (R)—N-(benzylsulfonyl)-7-(8-hydroxy-2,3-di-p-tolyl-7,8-dihydropyrido[3,2-b]pyrazin-5(6H)-yl)heptanamide or (S)—N-(benzylsulfonyl)-7-(8-hydroxy-2,3-di-p-tolyl-7,8-dihydropyrido[3,2-b]pyrazin-5(6H)-yl)heptanamide]
6 | 2.3 | CO[C@@H]1CCN(CCCCCCC(=O)O)c2nc(-c3ccc(C)cc3)c(-c3ccc(C)cc3)nc21 (single isomer, unassigned) [Example 3.3, (R)-7-(8-methoxy-2,3-di-p-tolyl-7,8-dihydropyrido[2,3-b]pyrazin-5(6H)-yl)heptanoic acid or (S)-7-(8-methoxy-2,3-di-p-tolyl-7,8-dihydropyrido[2,3-b]pyrazin-5(6H)-yl)heptanoic acid]
7 | 12.7 | Cc1ccc(-c2nc3c(nc2-c2ccc(C)cc2)N(CCCCCCC(=O)O)CC(C(C)(C)O)C3)cc1 (single isomer, unassigned) [9.2(i), (R)-7-(7-(2-hydroxypropan-2-yl)-2,3-di-p-tolyl-7,8-dihydropyrido[2,3-b]pyrazin-5(6H)-yl)heptanoic acid or (S)-7-(7-(2-hydroxypropan-2-yl)-2,3-di-p-tolyl-7,8-dihydropyrido[2,3-b]pyrazin-5(6H)-yl)heptanoic acid]
